Assay results reported in patent publication US7655671B2, “Morphinan derivatives, the quaternary ammonium salts thereof substituted in position 14, method for production and use thereof” (priority 2002, dated 2010).
Counter-ions that a name gives are not always drawn.

Tests used:
μ-opioid receptors = molecular target: T1, μ-opioid receptors (Rattus norvegicus, UniProt P33535); assay: Opioid receptor binding studies on rat's brain homogenisates with [3H]DAMGO
T1 construct: from tissue; host or cells: rat brain homogenate
T1 sequence (P33535 whole entry): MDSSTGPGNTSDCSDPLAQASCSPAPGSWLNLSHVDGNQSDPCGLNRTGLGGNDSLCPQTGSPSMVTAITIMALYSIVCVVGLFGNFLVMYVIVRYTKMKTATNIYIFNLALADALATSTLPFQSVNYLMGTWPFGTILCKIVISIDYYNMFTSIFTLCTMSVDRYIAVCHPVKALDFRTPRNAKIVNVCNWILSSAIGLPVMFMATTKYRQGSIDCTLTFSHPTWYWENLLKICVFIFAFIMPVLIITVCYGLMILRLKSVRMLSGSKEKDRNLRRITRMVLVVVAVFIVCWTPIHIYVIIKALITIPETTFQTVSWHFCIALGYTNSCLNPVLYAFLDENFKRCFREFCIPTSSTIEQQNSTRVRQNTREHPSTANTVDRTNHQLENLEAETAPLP

mice = assay: Hot-plate test (analgesia); assay type: in vivo, mouse; conditions: Mus musculus, sc, subcutaneous application, read-out: ED50 (μg/kg, sc)
Description: A test on mice (“hot-plate test”) was carried out as described earlier (E. L. May et al., J. Med. Chem. 2000; 43, 5030-5036).

Compound	melting point	Ki (μ-opioid receptors) [nM]	ED50 (mice) [µg/kg]
COc1ccc2c(c1O)[C@]13CCN(C)[C@H](C2)[C@]1(OCCCc1ccccc1)CCC(=O)C3	> 258 °C (dec.)	–	–
COc1ccc2c3c1O[C@H]1C(=O)CC[C@@]4(OCCCc5ccccc5)[C@@H](C2)N(CCc2ccccc2)CC[C@]314 (as salt: hydrochloride) [Compound 4, 4,5α-epoxy-3-methoxy-17-(2-phenylethyl)-14β-(3-phenylpropyloxy)morphinan-6-one hydrochloride]	128 to 130 °C	–	–
CC(C)CCO[C@@]12CCC(=O)[C@@H]3Oc4c(O)ccc5c4[C@@]31CCN(CC1CC1)[C@@H]2C5 (as salt: hydrochloride)	168 to 170 °C	–	–
C[N@+]1(CC2CC2)CC[C@]23c4c5ccc(O)c4O[C@H]2C(=O)CC[C@@]3(OCc2ccc(Cl)cc2)[C@H]1C5.[I-]	214 to 219 °C	–	–
CCCN1CC[C@]23c4c5ccc(O)c4O[C@H]2C(=O)CC[C@@]3(OCCC(C)C)[C@H]1C5 (as salt: hydrochloride)	175 to 185 °C (dec.)	–	–
CCO[C@@]12CCC(=O)[C@@H](C)[C@@]13CCN(C)[C@@H]2Cc1ccc(OC)c(O)c13	122 to 129 °C	–	–
O=C1CC[C@@]2(OCCCc3ccccc3)[C@H]3Cc4ccc(O)c5c4[C@@]2(CCN3CC2CCC2)[C@H]1O5 (as salt: hydrochloride) [Compound 7, 17-cyclobutylmethyl-4,5α-epoxy-3-hydroxy-14β-(3-phenylpropyloxy)morphinan-6-one hydrochloride]	> 227 °C (dec.)	–	–
CC#COc1ccc2c3c1O[C@H]1C(=O)CC[C@@]4(OCc5cccc(Cl)c5)C(C2)N(C)CC[C@]314 (as salt: hydrochloride)	145 to 150 °C	–	–
COc1ccc2c(c1O)[C@]13CCN(C)[C@H](C2)[C@]1(OCc1ccc2ccccc2c1)CCC(=O)C3 (as salt: hydrochloride)	195 to 197 °C	–	–
COc1ccc2c3c1O[C@@]1(Cc4ccccc4)C(=O)C=C[C@@]4(OC)[C@@H](C2)N(C)CC[C@]314 (stereo in doubt) (as salt: hydrochloride)	164 to 166 °C	–	–
COc1ccc2c3c1O[C@H]1C(=O)CC[C@@]4(OCCCc5ccccc5)C(C2)N(CC2CCCO2)CC[C@]314 (stereo partly drawn) (as salt: hydrochloride)	121 to 123 °C	–	–
C[N@+]1(CC2CC2)CC[C@]23c4c5ccc(O)c4O[C@H]2C(=O)CC[C@@]3(OCc2ccccc2-c2ccccc2)[C@H]1C5.[I-]	219 to 221 °C	–	–
COc1ccc2c(c1OC)[C@]13CCN(C)[C@H](C2)[C@]1(OCc1ccccc1)CCC(=O)[C@H]3C	166 to 167 °C	–	–
CCN1CC[C@]23c4c5ccc(OC)c4O[C@H]2C(=O)CC[C@@]3(OCCCc2ccccc2)[C@H]1C5	95 to 101 °C	–	–
COc1cccc2c1[C@]13CCN(CC4CC4)[C@H](C2)[C@]1(OC)CCC(=O)C3 [Cyprodime, cyprodime, reference compound]	–	23.7	–
COc1ccc2c(c1OC)[C@]13CCN(C)C(C2)[C@]1(OCCCc1ccccc1)CCC(=O)C3	110 to 115 °C	–	–
C[N@+]1(CC2CCCO2)CC[C@]23c4c5ccc(O)c4OC2C(=O)CCC3(OCCCc2ccccc2)C1C5.[I-] (stereo partly drawn) [Compound 40, (17R)-4,5α-epoxy-3-hydroxy-17-methyl-6-oxo-14β-[(3-phenylpropyl)oxy]-17-[(2-R,S-tetrahydrofurfuran-2-yl)methyl]morphinanium-iodide]	156 to 159 °C	0.37	–
CCCCOC12CCC(=O)C3(Cc4ccccc4)Oc4c(O)ccc5c4[C@@]31CC[N+](C)(C)C2C5.[I-] (stereo partly drawn)	188 to 195 °C	–	–
COc1ccc2c(c1O)[C@]13CCN(C)[C@H](C2)[C@]1(OCCCc1ccccc1)CCC(=O)[C@H]3C (as salt: hydrochloride)	> 210 °C (dec.)	–	–
C=CC[N@+]1(C)CC[C@]23c4c5ccc(O)c4OC2(Cc2ccccc2)C(=O)CCC3(OCCCC)C1C5.[I-] (stereo partly drawn)	200 to 205 °C	–	–
O=C1CC[C@@]2(OCCCc3ccccc3)[C@H]3Cc4cccc(O)c4[C@@]2(CC[N@H+]3CC2CC2)C1.[Cl-] [Compound 55, 17-(cyclopropylmethyl)-4-hydroxy-14β-[(3-phenylpropyl)oxy]morphinan-6-one hydrochloride]	> 170 °C (dec.)	0.4	–
CCCCO[C@@]12CCC(=O)[C@@H]3Oc4c(O)ccc5c4[C@@]31CCN(CC1CC1)[C@@H]2C5 (as salt: hydrochloride)	240 °C (dec.)	–	–
O=C1CC[C@@]2(OCCCc3ccccc3)C3Cc4ccc(O)c5c4[C@@]2(CCN3CC2CCCO2)[C@H]1O5 (stereo partly drawn) (as salt: hydrochloride) [Compound 10, 4,5α-epoxy-17-[2-((R,S)-tetrahydrofuran-2-yl)methyl]-3-hydroxy-14β-(3-phenylpropyloxy)morphinan-6-one hydrochloride]	170 to 172 °C	–	–
COc1ccc2c3c1O[C@H]1C(=O)CC[C@@]4(OCCCc5ccccc5)[C@@H](C2)N(CC2CCC2)CC[C@]314 (as salt: hydrochloride)	128 to 133 °C	–	–

Compound	melting point	Ki (μ-opioid receptors) [nM]	ED50 (mice) [µg/kg]
COc1ccc2c3c1O[C@H]1C(=O)CC[C@@]4(OCCCc5ccccc5)[C@@H](C2)[N@@+](C)(CC2CC2)CC[C@]314.[I-] [Compound 49, (17R)-17-cyclopropylmethyl-4,5α-epoxy-3-methoxy-17-methyl-6-oxo-14β-[(3-phenylpropyl)oxy]morphinanium-iodide]	133 to 136 °C	1.78	–
CC[N@@+]1(C)CC[C@]23c4c5ccc(O)c4O[C@H]2C(=O)CC[C@@]3(OCCCc2ccccc2)[C@H]1C5.[I-]	171 to 176 °C	–	–
COc1ccc2c(c1OC)[C@]13CCN(C)[C@H](C2)[C@]1(OCc1ccccc1)CCC(=O)C3 (as salt: hydrochloride)	140 to 145 °C	–	–
CCCCOc1cccc2c1[C@]13CC[N@@H+](CC4CC4)C(C2)[C@]1(OCCCc1ccccc1)CCC(=O)C3.[Cl-] (stereo in doubt)	172 to 177 °C	–	–
C=CCN1CC[C@]23c4c5ccc(OC)c4O[C@H]2C(=O)CC[C@@]3(OCCCc2ccccc2)C1C5	129 to 130 °C	–	–
COc1ccc2c(c1O)[C@]13CCN(C)[C@H](C2)[C@]1(OCc1ccccc1)CCC(=O)C3 (as salt: hydrochloride)	> 220 °C (dec.)	–	–
COC12CCC(=O)C3Oc4c(O)ccc5c4[C@@]31CC[N@+](C)(CCc1ccccc1)C2C5.[I-] (stereo partly drawn)	180 to 181 °C	–	–
O=C1CC[C@@]2(OCCCc3ccccc3)[C@H]3Cc4cccc5c4[C@@]2(CC[N@H+]3CC2CC2)[C@H]1O5.[Cl-] [Compound 54, 17-(cyclopropylmethyl)-4,5α-epoxy-14β-[(3-phenylpropyl)oxy]morphinan-6-one hydrochloride]	145 to 150 °C	0.84	–
COc1ccc2c(c1O)[C@]13CCN(C)[C@H](C2)[C@]1(O)CCC(=O)[C@H]3C (stereo in doubt)	> 185 °C (dec.)	–	–
Cc1ccccc1CO[C@@]12CCC(=O)[C@@H]3Oc4c(O)ccc5c4[C@@]31CCN(CC1CC1)[C@@H]2C5 (as salt: hydrochloride)	198 to 200 °C	–	–
O=C1CC[C@@]2(OCc3ccccc3)[C@H]3Cc4ccc(O)c5c4[C@@]2(CCN3CC2CC2)[C@H]1O5 (as salt: hydrobromid)	> 210 °C (dec.)	–	–
O=C1CC[C@@]2(OCc3ccccc3Cl)[C@H]3Cc4ccc(O)c5c4[C@@]2(CCN3CC2CC2)[C@H]1O5 (as salt: hydrochloride)	165 to 168 °C	–	–
COc1ccc2c(c1OC)[C@]13CCN(C)[C@H](C2)[C@]1(OCc1ccc2ccccc2c1)CCC(=O)C3 (as salt: hydrochloride)	165 to 170 °C	–	–
C=CC[N@@+]1(C)CC[C@]23c4c5ccc(O)c4O[C@H]2C(=O)CC[C@@]3(OCC)[C@H]1C5.[I-] [Compound 41, (17R)-17-allyl-4,5α-epoxy-14β-ethoxy-3-hydroxy-17-methyl-6-oxomorphinanium-iodide]	130 to 134 °C	2.32	–
O=C1CC[C@@]2(OCCCc3ccccc3)[C@H]3Cc4ccc(O)c5c4[C@@]2(CCN3CCc2ccccc2)[C@H]1O5 (as salt: hydrochloride) [Compound 9, 4,5α-epoxy-3-hydroxy-17-(2-phenylethyl)-14β-(3-phenylpropyloxy)morphinan-6-one hydrochloride]	> 218 °C (dec.)	–	–
COc1ccc2c(c1OC)[C@]13CCN(C)C(C2)[C@]1(O)CCC(=O)[C@H]3C	122 to 124 °C	–	–
CCCCO[C@@]12CCC(=O)[C@@H]3Oc4c(O)ccc5c4[C@@]31CC[N+](C)(C)[C@@H]2C5.[I-]	180 to 185 °C	–	–
O=C1CC[C@@]2(OCCCc3ccccc3)[C@H]3Cc4ccc(O)c5c4[C@@]2(CCN3CCc2ccccc2)[C@H]1O5 [Compound 9, 4,5α-epoxy-3-hydroxy-17-(2-phenylethyl)-14β-(3-phenylpropyloxy)morphinan-6-one hydrochloride]	–	–	11.7
CCO[C@@]12CCC(=O)[C@@H](C)[C@@]13CCN(C)C2Cc1ccc(OC)c(OC)c13	135 to 141 °C	–	–
CCN1CC[C@]23c4c5ccc(O)c4O[C@H]2C(=O)CC[C@@]3(OCCCc2ccccc2)[C@H]1C5 (as salt: hydrochloride)	178 to 180 °C	–	–
COc1cccc2c1[C@]13CC[N@@H+](CC4CC4)[C@H](C2)[C@]1(OCCCc1ccccc1)CCC(=O)C3.[Cl-] [Compound 56, 17-(cyclopropylmethyl)-4-methoxy-14β-[(3-phenylpropyl)oxy]morphinan-6-one hydrochloride]	121 to 126 °C	0.34	–
COc1ccc2c3c1O[C@H]1C(=O)CC[C@@]4(OCCCc5ccccc5)[C@@H](C2)N(CC2CC2)CC[C@]314 (as salt: hydrochloride)	130 to 133 °C	–	–
C=CC[N@+]1(C)CC[C@]23c4c5ccc(O)c4O[C@H]2C(=O)CC[C@@]3(OC)[C@H]1C5.[I-] [Compound 43, (17S)-17-allyl-4,5α-epoxy-3-hydroxy-14β-methoxy-17-methyl-6-oxomorphinanium-iodide]	> 140 °C	1.33	–
